Results published in ChEMBL document CHEMBL3046897, “Synthesis of 3-{4-[4-dimethylamino-6-(4-methyl-2-oxo-2H-chromen-7-yloxy)-[1,3,5]triazin-2-ylamino]-phenyl}-2-phenyl-5-(4-pyridin-2-yl-piperazin-1-ylmethyl)-thiazolidin-4-one and their biological evaluation” (2012).
Converted amounts (≈) assume the structure as drawn.

Experiments:
Format in all cases: functional
[1] = system: Pseudomonas aeruginosa; experiment: Antibacterial activity against Pseudomonas aeruginosa at 100 ug/disk after 24 hr by paper disk diffusion method; settings: read-out: IZ
[2] = system: Proteus vulgaris; experiment: Antibacterial activity against Proteus vulgaris after 24 hr by agar streak dilution method
[3] = system: Klebsiella pneumoniae; experiment: Antibacterial activity against Klebsiella pneumoniae after 24 hr by agar streak dilution method
[4] = system: Aspergillus fumigatus; experiment: Antifungal activity against Aspergillus fumigatus after 48 hr by agar streak dilution method
[5] = system: Proteus vulgaris; experiment: Antibacterial activity against Proteus vulgaris at 100 ug/disk after 24 hr by paper disk diffusion method; settings: read-out: IZ
[6] = system: Staphylococcus aureus; experiment: Antibacterial activity against Staphylococcus aureus at 100 ug/disc after 24 hr by paper disk diffusion method; settings: read-out: IZ
[7] = system: Staphylococcus aureus; experiment: Antibacterial activity against Staphylococcus aureus after 24 hr by agar streak dilution method
[8] = system: Aspergillus clavatus; experiment: Antifungal activity against Aspergillus clavatus at 100 ug/disc after 48 hr by paper disk diffusion method; settings: read-out: IZ
[9] = system: Bacillus subtilis; experiment: Antibacterial activity against Bacillus subtilis at 100 ug/disk after 24 hr by paper disk diffusion method; settings: read-out: IZ
[10] = system: Shigella flexneri; experiment: Antibacterial activity against Shigella flexneri after 24 hr by agar streak dilution method
[11] = system: Salmonella typhi; experiment: Antibacterial activity against Salmonella enterica subsp. enterica serovar Typhi at 100 ug/disk after 24 hr by paper disk diffusion method; settings: read-out: IZ
[12] = system: Klebsiella pneumoniae; experiment: Antibacterial activity against Klebsiella pneumoniae at 100 ug/disk after 24 hr by paper disk diffusion method; settings: read-out: IZ
[13] = system: Shigella flexneri; experiment: Antibacterial activity against Shigella flexneri at 100 ug/disc after 24 hr by paper disk diffusion method; settings: read-out: IZ
[14] = system: Aspergillus niger; experiment: Antifungal activity against Aspergillus niger after 48 hr by agar streak dilution method
[15] = system: Salmonella typhi; experiment: Antibacterial activity against Salmonella enterica subsp. enterica serovar Typhi after 24 hr by agar streak dilution method
[16] = system: Escherichia coli; experiment: Antibacterial activity against Escherichia coli after 24 hr by agar streak dilution method
[17] = system: Pseudomonas aeruginosa; experiment: Antibacterial activity against Pseudomonas aeruginosa after 24 hr by agar streak dilution method
[18] = system: Aspergillus niger; experiment: Antifungal activity against Aspergillus niger at 100 ug/disk after 48 hr by paper disk diffusion method; settings: read-out: IZ
[19] = system: Candida albicans; experiment: Antifungal activity against Candida albicans after 48 hr by agar streak dilution method
[20] = system: Candida albicans; experiment: Antifungal activity against Candida albicans at 100 ug/disk after 48 hr by paper disk diffusion method; settings: read-out: IZ
[21] = system: Aspergillus clavatus; experiment: Antifungal activity against Aspergillus clavatus after 48 hr by agar streak dilution method
[22] = system: Escherichia coli; experiment: Antibacterial activity against Escherichia coli at 100 ug/disk after 24 hr by paper disk diffusion method; settings: read-out: IZ
[23] = system: Bacillus subtilis; experiment: Antibacterial activity against Bacillus subtilis after 24 hr by agar streak dilution method
[24] = system: Aspergillus fumigatus; experiment: Antifungal activity against Aspergillus fumigatus at 100 ug/disc after 48 hr by paper disk diffusion method; settings: read-out: IZ

Row | Compound | zone of inhibition at 100 µg/disc [1] | MIC [2] | MIC [3] | MIC [4] | zone of inhibition at 100 µg/disc [5] | zone of inhibition at 100 µg/disc [6] | MIC [7] | zone of inhibition at 100 µg/disc [8] | zone of inhibition at 100 µg/disc [9] | MIC [10] | zone of inhibition at 100 µg/disc [11] | zone of inhibition at 100 µg/disc [12] | zone of inhibition at 100 µg/disc [13] | MIC [14] | MIC [15] | MIC [16] | MIC [17] | zone of inhibition at 100 µg/disc [18] | MIC [19] | zone of inhibition at 100 µg/disc [20] | further results
1 | Cc1cc(=O)oc2cc(Oc3nc(Nc4ccc(N5C(=O)CSC5c5ccc(Cl)cc5)cc4)nc(N(C)C)n3)ccc12 (centres undefined) | 15 mm | 25 µg/mL (≈ 41.6 µM) | 50 µg/mL (≈ 83.2 µM) | 50 µg/mL (≈ 83.2 µM) | 20 mm | 18 mm | 50 µg/mL (≈ 83.2 µM) | 21 mm | 16 mm | 12.5 µg/mL (≈ 20.8 µM) | 21 mm | 18 mm | 24 mm | 100 µg/mL (≈ 166 µM) | 25 µg/mL (≈ 41.6 µM) | 50 µg/mL (≈ 83.2 µM) | 100 µg/mL (≈ 166 µM) | 15 mm | 25 µg/mL (≈ 41.6 µM) | 22 mm | MIC [21]: 25 µg/mL (≈ 41.6 µM); zone of inhibition at 100 µg/disc [22]: 20 mm; MIC [23]: 100 µg/mL (≈ 166 µM); zone of inhibition at 100 µg/disc [24]: 18 mm
2 | Cc1cc(=O)oc2cc(Oc3nc(Nc4ccc(N5C(=O)C(CN6CCN(c7ccccn7)CC6)SC5c5ccc(Cl)c(Cl)c5)cc4)nc(N(C)C)n3)ccc12 (centres undefined) | 21 mm | 25 µg/mL (≈ 30.8 µM) | 50 µg/mL (≈ 61.7 µM) | 50 µg/mL (≈ 61.7 µM) | 20 mm | 19 mm | 50 µg/mL (≈ 61.7 µM) | 20 mm | 21 mm | 50 µg/mL (≈ 61.7 µM) | 20 mm | 19 mm | 19 mm | 100 µg/mL (≈ 123 µM) | 50 µg/mL (≈ 61.7 µM) | 50 µg/mL (≈ 61.7 µM) | 25 µg/mL (≈ 30.8 µM) | 16 mm | 100 µg/mL (≈ 123 µM) | 17 mm | MIC [21]: 50 µg/mL (≈ 61.7 µM); zone of inhibition at 100 µg/disc [22]: 18 mm; MIC [23]: 25 µg/mL (≈ 30.8 µM); zone of inhibition at 100 µg/disc [24]: 18 mm
3 | COc1ccc(C2SC(CN3CCN(c4ccccn4)CC3)C(=O)N2c2ccc(Nc3nc(Oc4ccc5c(C)cc(=O)oc5c4)nc(N(C)C)n3)cc2)cc1 (centres undefined) | 18 mm | 50 µg/mL (≈ 64.8 µM) | 50 µg/mL (≈ 64.8 µM) | 25 µg/mL (≈ 32.4 µM) | 20 mm | 21 mm | 25 µg/mL (≈ 32.4 µM) | 19 mm | 19 mm | 100 µg/mL (≈ 130 µM) | 22 mm | 19 mm | 17 mm | 25 µg/mL (≈ 32.4 µM) | 25 µg/mL (≈ 32.4 µM) | 100 µg/mL (≈ 130 µM) | 100 µg/mL (≈ 130 µM) | 22 mm | 25 µg/mL (≈ 32.4 µM) | 23 mm | MIC [21]: 50 µg/mL (≈ 64.8 µM); zone of inhibition at 100 µg/disc [22]: 16 mm; MIC [23]: 25 µg/mL (≈ 32.4 µM); zone of inhibition at 100 µg/disc [24]: 20 mm
4 | Cc1cc(=O)oc2cc(Oc3nc(Nc4ccc(N5C(=O)CSC5c5ccc(Cl)cc5Cl)cc4)nc(N(C)C)n3)ccc12 (centres undefined) | 16 mm | 50 µg/mL (≈ 78.7 µM) | 50 µg/mL (≈ 78.7 µM) | 50 µg/mL (≈ 78.7 µM) | 18 mm | 17 mm | 50 µg/mL (≈ 78.7 µM) | 19 mm | 19 mm | 50 µg/mL (≈ 78.7 µM) | 16 mm | 19 mm | 17 mm | 100 µg/mL (≈ 157 µM) | 100 µg/mL (≈ 157 µM) | 50 µg/mL (≈ 78.7 µM) | 50 µg/mL (≈ 78.7 µM) | 14 mm | 100 µg/mL (≈ 157 µM) | 16 mm | MIC [21]: 50 µg/mL (≈ 78.7 µM); zone of inhibition at 100 µg/disc [22]: 17 mm; MIC [23]: 50 µg/mL (≈ 78.7 µM); zone of inhibition at 100 µg/disc [24]: 17 mm
5 | COc1ccc(/C=N/c2ccc(Nc3nc(Oc4ccc5c(C)cc(=O)oc5c4)nc(N(C)C)n3)cc2)cc1 | 12 mm | 50 µg/mL (≈ 95.7 µM) | 100 µg/mL (≈ 191 µM) | 100 µg/mL (≈ 191 µM) | 16 mm | 15 mm | 100 µg/mL (≈ 191 µM) | 11 mm | 13 mm | 100 µg/mL (≈ 191 µM) | 18 mm | 14 mm | 10 mm | 50 µg/mL (≈ 95.7 µM) | 50 µg/mL (≈ 95.7 µM) | 100 µg/mL (≈ 191 µM) | 100 µg/mL (≈ 191 µM) | 16 mm | 50 µg/mL (≈ 95.7 µM) | 17 mm | MIC [21]: 100 µg/mL (≈ 191 µM); zone of inhibition at 100 µg/disc [22]: 10 mm; MIC [23]: 100 µg/mL (≈ 191 µM); zone of inhibition at 100 µg/disc [24]: 13 mm
6 | Cc1ccc(C2SC(CN3CCN(c4ccccn4)CC3)C(=O)N2c2ccc(Nc3nc(Oc4ccc5c(C)cc(=O)oc5c4)nc(N(C)C)n3)cc2)cc1 (centres undefined) | 22 mm | 50 µg/mL (≈ 66.1 µM) | 50 µg/mL (≈ 66.1 µM) | 25 µg/mL (≈ 33.1 µM) | 18 mm | 20 mm | 25 µg/mL (≈ 33.1 µM) | 22 mm | 22 mm | 25 µg/mL (≈ 33.1 µM) | 21 mm | 19 mm | 22 mm | 12.5 µg/mL (≈ 16.5 µM) | 25 µg/mL (≈ 33.1 µM) | 50 µg/mL (≈ 66.1 µM) | 50 µg/mL (≈ 66.1 µM) | 23 mm | 12.5 µg/mL (≈ 16.5 µM) | 24 mm | MIC [21]: 25 µg/mL (≈ 33.1 µM); zone of inhibition at 100 µg/disc [22]: 18 mm; MIC [23]: 12.5 µg/mL (≈ 16.5 µM); zone of inhibition at 100 µg/disc [24]: 20 mm
